Results taken from US5460829A, “Pharmaceutical compositions based on ebastine or analogues thereof” (Rhone-Poulenc Rorer S.A., priority 1991, dated 1995).

Legend:
Water solubility at pH 2 = assay type: physicochemical
[1] = Bioavailability of solid form; assay type: in vivo; settings: formulated in solid form
[2] = Dissolution of the active principle in aqueous/acidic medium; assay type: physicochemical; settings: oral administration

Compound: CC(C)(C)c1ccc(C(=O)CCCN2CCC(OC(c3ccccc3)c3ccccc3)CC2)cc1 [compound of formula (I) lactate]
- solubility (Water solubility at pH 2; water, in the form of the lactate, pH 2, read-out: optimum solubility): 800 µg/mL

Compound: CC(C)(C)c1ccc(C(=O)CCCN2CCC(OC(c3ccccc3)c3ccccc3)CC2)cc1 [compound of formula (I), 4-diphenylmethoxy-1-[3-(4-tert-butylbenzoyl)propyl]piperidine]
- bioavailability [1]: very mediocre
- water solubility (Water solubility at pH 2; basic non-salified form, relative to the lactate): even lower
- dissolution time in the aqueous medium of the stomach [2]: very long
